Reference: publication PMC9220410, “Antiamoebic Properties of Laboratory and Clinically Used Drugs against Naegleria fowleri and Balamuthia mandrillaris” (Antibiotics, 2022)
Where two headings read alike, the source gives them in different places.

Assays:
N. fowleri cysts = test: Excystation assay, N. fowleri cysts; assay type: cell-based, Naegleria fowleri; details: for inhibition at 100 µM: Naegleria fowleri, read-out: Inhibition of excystation of N. fowleri
Protocol: (§1) Briefly, 5 × 10^5 amoebae cysts (N. fowleri and B. mandrillaris cells) were incubated with 100 μM drugs and/or solvent in 24-well plates containing RPMI-1640 on HeLa monolayers at 37 °C and 5% CO2 until around 75% of the cysts in RPMI-1640 alone have excysted. The RPMI-1640 alone was used as a negative control while DMSO and ethanol were used as a solvent control and 100 μM miltefosine was used as positive control. Live trophozoites (amoebae that excysted) were then quantified by counting live (unstained) cells, after addition of 0.1% Trypan blue to each well, using a haemocytometer. Percentage inhibition is defined as: [(Number of trophozoites in untreated well − Number of trophozoites in treated well)/Number of trophozoites in untreated well)] × 100. The data are representative of the mean ± standard error of several independent experiments performed in duplicate.
(§2) Figure 3 (A) Inhibition of excystation of N. fowleri cysts. N. fowleri cysts were incubated with 100 μM drugs and/or solvent in 24-well plates containing RPMI-1640 on HeLa monolayers for 24 h and number of viable trophozoites were then enumerated. Percentage inhibition of excystation was calculated by: [((RPMI trophozoite cell count − trophozoite cell count for sample)/RPMI trophozoite cell count) × 100)]. The activities of solvents alone were negated from the activities of the compounds. The data is presented as the mean ± standard error (*: p ˂ 0.05, **: p < 0.01, ***: p < 0.001 using student t-test; two tailed distribution). (B) Inhibition of excystation of B. mandrillaris cysts. B. mandrillaris cysts were incubated with 100 μM drugs and/or solvent in 24-well plates containing RPMI-1640 on HeLa monolayers for 24 h and number of viable trophozoites were then enumerated. Percentage inhibition of excystation was calculated by: [((RPMI trophozoite cell count − trophozoite cell count for sample)/RPMI trophozoite cell count) × 100)]. The activities of solvents alone were negated from the activities of the compounds. The data is presented as the mean ± standard error (*: p ˂ 0.05, **: p < 0.01, ***: p < 0.001 using student t-test; two tailed distribution).

B. mandrillaris cysts = test: Excystation assay, B. mandrillaris cysts; assay type: cell-based; details: Balamuthia mandrillaris, read-out: Inhibition of excystation of B. mandrillaris
Protocol: as §1, §2

[1] = design: method as in PMID 29206032, PMID 32548431; details: ref [24],[25],[26]; cited from earlier work
[2] = tested on: B. mandrillaris trophozoites; test: Amoebicidal assay against B. mandrillaris trophozoites (Trypan blue); assay type: cell-based, Balamuthia mandrillaris; details: for EC50 / Concentration showing significant amoebicidal activity against B. mandrillaris: 24 h; for EC50: read-out: Half maximal effective concentration (EC50), B. mandrillaris; for Amoebicidal activity against B. mandrillaris: summary in discussion, concentration not given; for Concentration showing significant amoebicidal activity against B. mandrillaris: compared to solvent control
Protocol: (§3) Amoebicidal assays were performed as previously described. Briefly, 5 × 10^5 amoebae (N. fowleri and B. mandrillaris cells) were incubated with drugs and/or solvents in 24-well plates in RPMI-1640. Amoebae were incubated with RPMI-1640 for negative controls while DMSO and ethanol were used as solvent control. For the positive control, the anti-amoebic drug, 100 μM miltefosine was used. Plates were incubated at 37 °C and 5% CO2 for 24 h. Next, 0.1% Trypan blue was added to each well. […] The number of live cells (i.e., unstained) was counted using a haemocytometer to determine amoebicidal effects of various compounds. The data are representative of the mean ± standard error of several experiments performed in duplicate.
(§4) Figure 2 The amoebicidal activities of compounds against B. mandrillaris trophozoites. B. mandrillaris trophozoites were incubated with various concentrations of compounds for 24 h and trophozoites viability was determined using Trypan blue. Percentage amoebicidal activity was calculated by: [((RPMI cell count − cell count for sample)/RPMI cell count) × 100)]. The activities of solvents alone were negated from the activities of the compounds. The data is presented as the mean ± standard error (*: p < 0.05, **: p < 0.01, ***: p < 0.001 using student t-test; two tailed distribution).

N. fowleri trophozoites = test: Amoebicidal assay against N. fowleri trophozoites (Trypan blue); assay type: cell-based, Naegleria fowleri; details: for EC50 / minimal effective concentration: Naegleria fowleri; for EC50: read-out: Half maximal effective concentration (EC50), N. fowleri; for minimal effective concentration: read-out: Lowest concentration showing significant amoebicidal activity against N. fowleri; for Amoebicidal activity against N. fowleri: summary in discussion, concentration not given
Protocol: as §3
as §4, with “Figure 1” for “Figure 2”, “against N. fowleri” for “against B. mandrillaris”, “trophozoites. N. fowleri” for “trophozoites. B. mandrillaris”

HaCaT cells = assay type: cell-based, human
Protocol: Cytotoxic effects of the drugs were determined as previously described^21. Briefly, the cytotoxic activity of the drugs was investigated against HaCaT cells. […] The LDH assay protocol is based on an enzymatic reaction, i.e., LDH released from the cell oxidizes lactate to generate NADH, which then reacts with water-soluble tetrazolium salt (WST) to generate a yellow color. The intensity of the generated color correlates directly with the number of lyzed cells. Following this, 1% Triton X-100 was added to the positive control well and incubated the plate for 60 min at 37 °C. For negative control, human cells were grown in RPMI alone well. Then, an equal amount of cells supernatant (comprising LDH enzyme) from each well was combined with equal amount of LDH kit reagents and cytotoxicity was determined in proportion to LDH released from human cells using a spectrophotometer at 490 nm. The percentage LDH released was determined as follows: [(Absorbance of sample − Absorbance of control)/(Absorbance for total LDH release − Absorbance of control)] × 100 = percentage cytotoxicity.
Figure 4 Cytotoxic effects of compounds against human cells are depicted. Various concentrations of compounds were incubated with human cells for 24 h at 37 °C and 5% CO2. RPMI alone was used as negative control and triton X-100 was used as positive control. Data are presented as the mean ± standard error of 2 experiments conducted in duplicates.

[3] = 100 μM, after negating effects of solvent alone
[4] = compared to solvent control, p < 0.05, 24 h
[5] = LDH release, 24 h, concentration not given
[6] = Balamuthia mandrillaris, trophozoites, Trypan blue
[7] = trophozoites, 24 h, Trypan blue

Row | Compound | inhibition at 100 µM (N. fowleri cysts; [3]) [%] | inhibition at 100 µM (B. mandrillaris cysts; [3]) [%] | BBB Permeability [1] | EC50 ([2]; Balamuthia mandrillaris) [µM] | Amoebicidal activity against B. mandrillaris [2] [%] | EC50 (N. fowleri trophozoites; 24 h) [µM] | minimal effective concentration (N. fowleri trophozoites; [4]) [µM] | Amoebicidal activity against N. fowleri (N. fowleri trophozoites) [%] | Concentration showing significant amoebicidal activity against B. mandrillaris [2] [µM] | Cytotoxicity against HaCaT cells (HaCaT cells; [5]) | EC50 [2, 6] [µM] | EC50 (N. fowleri trophozoites; [7]) [µM] | other results
1 | C[C@H]1O[C@H](O[C@H]2[C@H](O)[C@@H](O)[C@@H](O[C@H]3[C@H](O)[C@@H](O)C(O)O[C@@H]3CO)O[C@@H]2CO)[C@H](O)[C@@H](O)[C@@H]1N[C@H]1C=C(CO)[C@@H](O)[C@H](O)[C@H]1O (stereo partly drawn) [Acarbose, (3R,4R,5S,6R)-5-[(2R,3R,4R,5S,6R)-5-[(2R,3R,4S,5S,6R)-3,4-dihydroxy-6-methyl-5-[[(1S,4R,5S,6S)-4,5,6-trihydroxy-3-(hydroxymethyl)cyclohex-2-en-1-yl]amino]oxan-2-yl]oxy-3,4-dihydroxy-6-(hydroxymethyl)oxan-2-yl]oxy-6-(hydroxymethyl)oxane-2,3,4-triol] | 17 | < 10 | Negative | 80.8 | 60 | 3.6 | ≥ 25 | 74 | – | – | – | – | –
2 | N#Cc1c(Cl)cccc1Cl [Dichlobenil (2,6-DNBT), 2,6-dichlorobenzonitrile] | – | – | – | 39.6 | 60 | 24.2 | – | 69 | 25 | – | – | – | Cytotoxicity against HaCaT cells (HaCaT cells; human, 24 h): 3%; inhibition at 100 µM (N. fowleri cysts): 45%; inhibition at 100 µM (B. mandrillaris cysts): 45%; minimal effective concentration (N. fowleri trophozoites; 24 h): ≥ 6.25 µM
3 | CCC1=C(C)CN(C(=O)NCCc2ccc(S(=O)(=O)NC(=O)NC3CCC(C)CC3)cc2)C1=O (stereo not shown) [Glimepiride, 4-ethyl-3-methyl-N-[2-[4-[(4-methylcyclohexyl)carbamoylsulfamoyl]phenyl]ethyl]-5-oxo-2H-pyrrole-1-carboxamide] | 53 | < 10 | Positive | – | 54 | – | 12.5 | 92 | – | 6% | 63.6 | 5.2 | –
4 | Cc1ccc2c(c1)C(Nc1nc(N)nc(C(C)F)n1)C(C)C2 (stereo not shown) [Indaziflam, N-(2,3-dihydro-2,6-dimethyl-1H-inden-1-yl)-6-(1-fluoroethyl)-1,3,5-triazine-2,4-diamine] | – | – | – | 99.8 | 52 | 53.7 | – | 62 | 50 | 4% | – | – | inhibition at 100 µM (N. fowleri cysts): 68%; inhibition at 100 µM (B. mandrillaris cysts): 52%; minimal effective concentration (N. fowleri trophozoites; 24 h): 12.5 µM
5 | OC1C(O)C(O)C(O)C(O)C1O (stereo not shown) [Inositol, cyclohexane-1,2,3,4,5,6-hexol] | 12 | – | Present in brain | – | – | – | ≥ 6.25 | – | 6.25 | 4% | 124 | 48.9 | –
6 | CN(C)C(=N)NC(=N)N [Metformin, 1-carbamimidamido-N,N-dimethylmethanimidamide] | – | – | – | – | – | 134 | 12.5 | – | – | – | – | – | Inhibition of excystation of N. fowleri (N. fowleri cysts; [3]): did not inhibit excystation
7 | O=C(O)c1c(Cl)ccc2cc(Cl)cnc12 [Quinclorac, 3,7-Dichloro-8-quinolinecarboxylic acid] | 30 | 53 | – | – | – | – | ≥ 25 | – | 50 | 6% | 297 | 102 | –
8 | CCNc1nc(Cl)nc(NC(C)(C)C)n1 [Terbuthylazine, 2-N-tert-butyl-6-chloro-4-N-ethyl-1,3,5-triazine-2,4-diamine] | 29 | < 10 | – | – | 61 | – | ≥ 3.13 | 63 | – | 2% | 62.5 | 7.5 | –
9 | CN1C(=O)[C@](O)(Cc2cccc(O)c2)N(C)C(=O)[C@@H]1Cc1c[nH]c2cccc([N+](=O)[O-])c12 [Thaxtomin A, (3R,6S)-3-hydroxy-3-[(3-hydroxyphenyl)methyl]-1,4-dimethyl-6-[(4-nitro-1H-indol-3-yl)methyl]piperazine-2,5-dione] | – | – | – | 39 | – | 94.7 | – | – | – | 4% | – | – | inhibition at 100 µM (N. fowleri cysts): 22%; inhibition at 100 µM (B. mandrillaris cysts): < 10%; Lowest concentration showing significant amoebicidal activity against N. fowleri (N. fowleri trophozoites; [4]): did not show anti-N. fowleri effects at any concentration tested
10 | O=C(O)/C=C/c1ccccc1 [Trans-cinnamic acid, (E)-3-phenylprop-2-enoic acid] | 59 | 32 | – | – | – | – | ≥ 3.13 | – | – | 8% | – | 9.4 | –
11 | N#C[C@@H]1CCCN1C(=O)CNC12CC3CC(CC(O)(C3)C1)C2 [Vildagliptin, (2S)-1-[2-[(3-hydroxy-1-adamantyl)amino]acetyl]pyrrolidine-2-carbonitrile] | – | 14 | Positive | – | – | – | ≥ 3.13 | – | – | did not exhibit any cytotoxicity | – | 100 | Inhibition of excystation of N. fowleri (N. fowleri cysts; [3]): did not inhibit excystation
12 | Cellulase | – | – | – | – | – | – | – | – | 100 | – | – | – | Cytotoxicity against HaCaT cells (HaCaT cells): did not exhibit any cytotoxicity; Inhibition of excystation of N. fowleri (N. fowleri cysts; [3]): 39%; EC50 ([2]; trophozoites, Trypan blue): 106 µM; Lowest concentration showing significant amoebicidal activity against N. fowleri (N. fowleri trophozoites; [4]): did not show anti-N. fowleri effects at any concentration tested
